Earlier results, collected in paper PMC6225257 (Molecules : A Journal of Synthetic Chemistry and Natural …, 2018).

Settings: patients with chronic kidney disease; ref [18]
Text: Here, we conjugated P88 to a paramagnetic MRI CA comprising a chelator (1,4,7,10-tetraazacyclododecane-1,4,7,10-tetraacetic acid, DOTA) complexed with GdCl3 to solve eventual limitations of the superparamagnetic CAs and pave the way towards future clinical implementation. Gadolinium (Gd)-based CAs (GBCA) are routinely employed in radiology as diagnostic agents.

## Gd-DOTA
  effect on renal function: does not affect renal function
